Source: ChEMBL document CHEMBL3608207, “Synthesis, characterization, evaluation and molecular dynamics studies of 5, 6-diphenyl-1,2,4-triazin-3(2H)-one derivatives bearing 5-substituted 1,3,4-oxadiazole as potential anti-inflammatory and analgesic agents” (Eur J Med Chem, 2015)

What was measured:
[1] = test system: Rattus norvegicus; assay: Anti-inflammatory activity in rat model of acute inflammation assessed as inhibition of carrageenan-induced paw oedema dosed at equimolar oral dose relative to 10 mg/kg, po indomethacin dosed 1 hr before carrageenan injection and measured 4 hrs after carrageenan injection; type: functional
[2] = test system: Rattus norvegicus; assay: Anti-inflammatory activity in rat model of acute inflammation assessed as inhibition of carrageenan-induced paw oedema dosed at equimolar oral dose relative to 10 mg/kg, po indomethacin dosed 1 hr before carrageenan injection and measured 5 hrs after carrageenan injection; type: functional
[3] = test system: Rattus norvegicus; assay: Anti-inflammatory activity in rat assessed as inhibition of arachidonic acid-induced paw edema dosed at equimolar oral dose relative to 10 mg/kg, po indomethacin dosed 30 mins before arachidonic acid injection and measured 1 hr after arachidonic acid injection; type: functional
[4] = test system: Rattus norvegicus; assay: Anti-inflammatory activity in rat Freund's adjuvant induced arthritis model of chronic inflammation assessed as inhibition of right hind paw swelling at equimolar oral dose relative to 10 mg/kg, po indomethacin dosed after 14 days from day of adjuvant injection until day 21 and measured on day 21; type: functional
[5] = test system: Rattus norvegicus; assay: Gastro-intestinal toxicity in rat Freund's adjuvant induced arthritis model of chronic inflammation assessed as ulcer index at equimolar oral dose relative to 10 mg/kg, po indomethacin dosed after 14 days from day of adjuvant injection until day 21 and measured on day 21; type: organism-based; settings: in vivo, 336 h
[6] = test system: Rattus norvegicus; assay: (§1) Renal toxicity in rat Freund's adjuvant induced arthritis model of chronic inflammation assessed as assessed as total albumin level at equimolar oral dose relative to 10 mg/kg, po indomethacin dosed after 14 days from day of adjuvant injection until day 21 and measured on day 21 (reference value: 1.77 +/- 0.12 g/dL); type: organism-based; settings: in vivo, 336 h
[7] = test system: Rattus norvegicus; assay: as §1, with “creatinine” for “total albumin”, “0.62” for “1.77”, “0.049 mg/dL)” for “0.12 g/dL)”; type: organism-based; settings: in vivo, 336 h
[8] = test system: Rattus norvegicus; assay: Anti-inflammatory activity in rat model of acute inflammation assessed as inhibition of carrageenan-induced paw oedema dosed at equimolar oral dose relative to 10 mg/kg, po indomethacin dosed 1 hr before carrageenan injection and measured 1 hr after carrageenan injection; type: functional
[9] = test system: Rattus norvegicus; assay: (§2) Gastro-intestinal toxicity in rat Freund's adjuvant induced arthritis model of chronic inflammation assessed as histological changes at equimolar oral dose relative to 10 mg/kg, po indomethacin dosed after 14 days from day of adjuvant injection until day 21 and measured on day 21 by hematoxylin and eosin staining based microscopy; type: organism-based; settings: in vivo, 336 h
[10] = test system: Rattus norvegicus; assay: as §2, with “Hepato-toxicity” for “Gastro-intestinal toxicity”; type: organism-based; settings: in vivo, 336 h
[11] = test system: Rattus norvegicus; assay: as §2, with “Renal” for “Gastro-intestinal”; type: organism-based; settings: in vivo, 336 h

COc1ccc(-c2nnc(Cn3nc(-c4ccccc4)c(-c4ccccc4)nc3=O)o2)cc1
inhibition (INH) [1]: 52.67%
inhibition (INH) [2]: 55.25%
inhibition (INH) [3]: 13.71%
inhibition (INH) [4]: 49.34%
UI [5]: 11
Activity [6]: 1.87 g/dL
Activity [7]: 0.91 mg/dL
inhibition (INH) [8]: 18.24%

O=c1nc(-c2ccccc2)c(-c2ccccc2)nn1Cc1nnc(-c2ccc(O)cc2O)o1
inhibition (INH) [1]: 59.74%
inhibition (INH) [2]: 59.07%
inhibition (INH) [3]: 19.19%
inhibition (INH) [4]: 54.25%
UI [5]: 10
Activity [9]: Non-toxic
Activity [6]: 1.82 g/dL
Activity [7]: 0.72 mg/dL
Activity [10]: Non-toxic
Activity [11]: Non-toxic
inhibition (INH) [8]: 24.71%

Nc1ccc(-c2nnc(Cn3nc(-c4ccccc4)c(-c4ccccc4)nc3=O)o2)cc1
inhibition (INH) [1]: 56.96%
inhibition (INH) [2]: 58.83%
inhibition (INH) [3]: 16.45%
inhibition (INH) [4]: 52.21%
UI [5]: 12
Activity [9]: Non-toxic
Activity [6]: 1.87 g/dL
Activity [7]: 0.86 mg/dL
Activity [10]: Non-toxic
Activity [11]: Non-toxic
inhibition (INH) [8]: 24.02%

O=c1nc(-c2ccccc2)c(-c2ccccc2)nn1Cc1nnc(-c2ccc(Cl)cc2)o1
inhibition (INH) [1]: 54.99%
inhibition (INH) [2]: 57.64%
inhibition (INH) [3]: 17.58%
inhibition (INH) [4]: 51.98%
UI [5]: 18
Activity [6]: 1.8 g/dL
Activity [7]: 0.78 mg/dL
inhibition (INH) [8]: 22.98%

O=c1nc(-c2ccccc2)c(-c2ccccc2)nn1Cc1nnc(-c2ccc([N+](=O)[O-])cc2)o1
inhibition (INH) [1]: 54.76%
inhibition (INH) [2]: 55.96%
inhibition (INH) [3]: 12.26%
inhibition (INH) [4]: 49.7%
UI [5]: 16
Activity [6]: 1.83 g/dL
Activity [7]: 0.88 mg/dL
inhibition (INH) [8]: 19.98%
